Consider three compounds from patent US20030109462A1, “Novel naringenin derivatives and use thereof” (Japan Science and Technology Corporation, priority 2001, published 2003).

The subject of assay [1] is azuki bean weevil (Callosobruchus chinensis). The assay is described as follows: Insecticidal test on artificial beans, azuki bean weevil. The assay is classed as in vivo. The method, then: (§1) These two species of bean weevils were cultured in the same way. In a 9 cm Petri dish containing 300 mungbean seeds, was placed ten adults of bean weevil and egg production was induced. After egg production, the adults were removed and cultured in a thermostatically controlled incubator at 60% humidity and 30° C. After 25 to 30 days from the egg production, the adults emerged. The emerged adults were used in the test for insecticidal activity.
(§2) To 1 g of the cotyledon powder of mungbean was added a small quantity of water to make bean-like solid material (about 0.25 g), which was freeze-dried. This material was called artificial bean (mungbean 100%) and used in the test.
(§3) The artificial beans (mungbean 100%) were placed in a 9 cm Petri dish, on which was then put the adults shortly after their emergence and eggs were laid on the artificial seeds. The culture environment was fixed at a temperature of 30° C. and a humidity of 60%. After a lapse of 25 to 30 days from the egg production, the adults normally emerged from the artificial beans (mungbean 100%). Thus, it became clear that the bean weevils can utilize the artificial beans for their egg production and emergence, and it was confirmed that the artificial beans are useful in a test of insecticidal activity for bean weevils.
(§4) One artificial seed each of artificial beans in this test was placed in a 9 cm Petri dish, on which the adults of azuki bean weevils or cowpea weevils shortly after the emergence were put and induced to lay eggs. After egg production, the adults were cultured in an incubator fixed at 30° C. and 60% humidity. The number of eggs laid on the artificial beans was recorded, and the number of the adults that emerged from the artificial beans was continuously recorded for up to 50 days after the egg production to calculate the rate of emergence. The artificial beans on which no emergence was recorded by the 50th day after eggs were laid were split with a pair of forceps and checked as to whether there was any larvae in the artificial seed. This experiment, the insecticidal test on the artificial beans, was repeated 4 times.
(§5) The value represented by the weight (g) of the artificial beans which can be prepared from the total weight of rice bean seed powder according to the minimum lethal concentration was regarded as the total activity of the rice bean seed powder. (The value derived by dividing the total weight of rice bean seed powder by the minimum lethal concentration)
(§6) Moreover, the total activity for 1 g of the rice bean seed powder was calculated as specific activity (units/g).
(§7) Insecticidal activity was observed by calculating total activity and specific activity under the same conditions and following the same procedure as in Experiment 1, except that the extract obtained in each step of purification was used in place of the seed powder of rice bean.

The test system of assay [2] is cowpea weevil (C. maculatus). The experiment in a line: Insecticidal test on artificial beans, cowpea weevil. Format: in vivo, Callosobruchus maculatus. The settings on record: cowpea weevils. The method, then: as §1
To 1 g of the cotyledon powder of mungbean was added a small quantity of water to make bean-like solid material (about 0.25 g), which was freeze-dried. This material was called artificial bean (mungbean 100%) and used in the test. […]
as §4, with “After egg production, the adults were cultured in an incubator fixed at 30° C. and 60% humidity.” left out, “This experiment, the insecticidal test on the artificial beans, was repeated 4 times.” left out

Assay [3] has as its system two species of bean weevils: azuki bean weevil (Callosobruchus chinensis) and cowpea weevil (C. maculatus). The experiment in a line: Insecticidal test on artificial beans, one result stated for both bean weevil species. Format: in vivo. The protocol:
Two species of bean weevils, i.e., azuki bean weevil (Callosobruchus chinensis) and cowpea weevil (C. maculatus) were employed. Cowpea weevil was obtained from Kasetsart University, Thailand, under an import license from the Plant Quarantine Office of Japan and subcultured.
as §1, §2, §3, §4, §5, §6, §7

For assay [4], the system named is larva of giant tobacco budworm (Heliothis obsoleta Fabricius). The conditions noted are these: cited from earlier work.
[5] abbreviates: Table 1, steps from silica gel chromatography on, activity to azuki bean weevils.
The mark [6] stands for this setting: Table 2, purification without silica gel, two species of bean weevils.

Molecules are shown by their SMILES. Entries after “also recorded” stand apart in the source; their conditions may differ.

Regarding `O=C1C[C@H](c2ccc(O)cc2)Oc2c1c(O)cc(O)c2[C@@H]1O[C@H](CO)[C@@H](O)[C@H](O)[C@H]1O` [8-C-β-D-glucosyl-(R)-naringenin], the Specific activity in assay [1] (setting [5]) was determined as 1000.0 units/g. In assay [1] (setting [5]), the Total activity is listed as 2.0 units. Further, the rate of emergence result in assay [1] (artificial beans containing 0.05%, 0.1%, or 0.2% of the 7th peak, azuki bean weevils) is given as “low”; in assay [1] (artificial beans containing 0.1% of the 7th peak), 0%; in assay [1] (artificial beans containing 0.2% of the 7th peak), 0%. Moreover, the figures for the “insecticidal activity (in words)” value in assay [1] (azuki bean weevils) and in assay [2] were “insecticidal substance active to azuki bean weevils; also recorded: shows insecticidal activity” and “only to azuki bean weevils”, respectively. Besides, the minimum lethal concentration in assay [1] (concentration in artificial beans required for emergence rate 0%, azuki bean weevils) turned out to be 0.1%.

Take `O=C1C[C@H](c2ccc(O)cc2)Oc2cc(O)c([C@@H]3O[C@H](CO)[C@@H](O)[C@H](O)[C@H]3O)c(O)c21` [6-C-β-D-glucosyl-(R)-naringenin]: the Specific activity in assay [3] (setting [6]) stood at 1000.0 units/g. In addition, in assay [3] (setting [6]), the Total activity was determined as 8.0 units. Moreover, the rate of emergence entry in assay [3] (artificial beans containing 0.05%, 0.1%, or 0.2% of the 5th peak, both species) is listed as “low”; in assay [3] (artificial beans containing 0.1% of the 5th peak, two species), 0%; in assay [3] (artificial beans containing 0.2% of the 5th peak, two species), 0%. Besides, the “insecticidal activity (in words)” value in assay [3] (azuki bean weevils and cowpea weevils) is “insecticidal substance active to azuki bean weevils and cowpea weevils”; in assay [2], “insecticidally active”. Further, the minimum lethal concentration in assay [3] (concentration in artificial beans required for emergence rate 0%, both weevil species) stood at 0.1%.

On to `O=c1cc(-c2ccc(O)c(O)c2)oc2cc(O)c([C@@H]3O[C@H](CO)[C@@H](O)[C@H](O)[C@H]3O)c(O)c12` [6-C-β-D-glucosyl-luteolin], for which the “insecticidal effect (in words)” value in assay [4] is listed as “insecticidal effect”.
